# Experimental data published in patent US9877501B2, “Stevia composition” (PureCircle Sdn Bhd, priority 2011, dated 2018).
# Read-outs that look alike come from different tables or passages of the source.
# Assays:
# [1] = cited from earlier work
# [2] = carbonated beverages; Chang and Cook 1983; cited from earlier work
# [3] = Sensory evaluation of zero-calorie carbonated beverage samples by 20 panelists; settings: 0.050% stevia composition
# Description: The sensory properties were evaluated by 20 panelists.
# [4] = sensory evaluations, Crammer and Ikan 1986
Compound,"times sweeter than sucrose ([1]; Tanaka 1987, Phillips 1989)",heat and pH stability [2],"times sweeter than sucrose [1, 4]",further results
C=C1C[C@@]23CC[C@H]4[C@@](C)(CCC[C@@]4(C)C(=O)O[C@@H]4O[C@H](CO)[C@@H](O)[C@H](O)[C@H]4O)[C@@H]2CC[C@]1(O[C@@H]1O[C@H](CO)[C@@H](O)[C@H](O)[C@H]1O[C@@H]1O[C@@H](C)[C@H](O)[C@@H](O)[C@H]1O)C3 [Dulcoside A],30 times,–,–,–
"C=C1C[C@@]23CC[C@H]4[C@@](C)(CCC[C@@]4(C)C(=O)O[C@@H]4O[C@H](CO)[C@@H](O)[C@H](O)[C@H]4O)[C@@H]2CC[C@]1(O[C@@H]1O[C@H](CO)[C@@H](O)[C@H](O[C@@H]2O[C@H](CO)[C@@H](O)[C@H](O)[C@H]2O)[C@H]1O[C@@H]1O[C@H](CO)[C@@H](O)[C@H](O)[C@H]1O)C3 [Reb A, rebaudioside A]",–,confirmed their heat and pH stability,350-450 times,"sensory attributes among major steviol glycosides ([1]; Tanaka 1987, Phillips 1989): the least astringent, the least bitter, and the least persistent aftertaste; Number of panelists detected the attribute: Aftertaste [3]: 12; Number of panelists detected the attribute: Astringent taste [3]: 9; Number of panelists detected the attribute: Bitter taste [3]: 10"
C=C1C[C@@]23CC[C@H]4[C@@](C)(CCC[C@@]4(C)C(=O)O[C@@H]4O[C@H](CO)[C@@H](O)[C@H](O)[C@H]4O)[C@@H]2CC[C@]1(O[C@@H]1O[C@H](CO)[C@@H](O)[C@H](O)[C@H]1O[C@@H]1O[C@H](CO)[C@@H](O)[C@H](O)[C@H]1O)C3 [stevioside],110-270 times,confirmed their heat and pH stability,–,–
Rebaudioside B [reb B],–,–,300-350 times,–
rebaudioside C,40-60 times,–,–,–
